Experimental data from ChEMBL document CHEMBL3301550, “MMV Mararia Box screening against P. falciparum asexual stage parasites under hypoxia and bicarbonate modified culture conditions”.
pIC50: −log10 of the molar value.

Legend:
Assay type in all cases: functional, organism-based
Conditions in all cases: 3D7
Plasmodium falciparum [1] = experiment: MMV: Modified 3H-Hyoxanthine uptake assay; 1% O2, 5% CO2 in N2.
Plasmodium falciparum [2] = experiment: MMV: 3H-Hyoxanthine uptake assay; 5% O2, 5% CO2 in N2.
Plasmodium falciparum [3] = experiment: MMV: 3H-Hyoxanthine uptake assay; RPMI 1640 (Invitrogen cat#11875-093) with Sodium Bicarbonate (NaHCO3) […].
Plasmodium falciparum [4] = experiment: MMV: Modified 3H-Hyoxanthine uptake assay; RPMI 1640 (Invitrogen cat#23400-013) without Sodium Bicarbonate (NaHCO3).

Row | Structure (SMILES) | pIC50 (Plasmodium falciparum [1]) | pIC50 (Plasmodium falciparum [2]) | pIC50 (Plasmodium falciparum [3]) | pIC50 (Plasmodium falciparum [4])
1 | CN1CCN(c2ccc(Nc3c4ccccc4nc4ccccc34)cc2)CC1 | 7.12 | 6.93 | 7.01 | 6.57
2 | CN(C)CCCNc1c2ccccc2nc2ccccc12 | 7.23 | 6.44 | 6.72 | 6.23
3 | CCN1CCCC1CNc1[nH]cnc2c3cc(Cl)ccc3nc1-2 (configuration not stated) | < 6.00 | < 6.00 | < 6.00 | < 6.00
4 | COc1ccc(-c2c(C)nn3c(N)c(C#N)cnc23)cc1OC | – | – | 6.48 | 6.34
5 | CSC1=NC(=Nc2c(C)cccc2C)C2(CCC(C(C)(C)C)CC2)N1c1ccc(Cl)cc1 (configuration not stated) | < 6.00 | < 6.00 | < 6.00 | < 6.00
6 | Cc1cc(C)cc(Nc2cc(C)nc3nc(C(F)(F)F)nn23)c1 | 7.33 | 7.09 | 7.23 | 6.88
7 | O=C(NCC(c1ccsc1)N1CCCCCC1)c1ccc(C(F)(F)F)cc1 (configuration not stated) | – | – | 6.37 | 5.95
8 | Cc1ccc(-c2cc3c(SCC(=O)Nc4cc(C(F)(F)F)ccc4Cl)nccn3n2)cc1 | < 6.30 | < 6.30 | < 6.30 | < 6.30
9 | CCN(CC)CCNc1ncnc2c1[nH]c1ccc(Cl)cc12 | 6.58 | 6.50 | 6.49 | 6.07
10 | CCOC(=O)c1cnc2ccc(CC)cc2c1O | < 6.00 | < 6.00 | 6.52 | 6.39
11 | Cc1ccc(-c2cc3c(nn2)-c2ccccc2C3=O)cc1 | < 6.30 | < 6.30 | < 6.30 | < 6.30
12 | CCN(CC)CCNc1ccnc2cc(Cl)ccc12 | 7.74 | 7.40 | 7.34 | 7.03
13 | Cc1ccc(Nc2nc(-c3ccccn3)cs2)cc1 | < 6.00 | < 6.00 | < 6.00 | < 6.00
14 | CCCCCC(=O)N1c2ccccc2N=C2CC(c3ccc(OC)c(OC)c3)CC(O)=C2C1c1ccc(C(F)(F)F)cc1 (configuration not stated) | – | – | 6.89 | 6.84
15 | Cc1cc(NCCN2CCCCC2)c2ccc3ccccc3c2n1 | 6.88 | 6.31 | 6.90 | 6.66
16 | COc1ccc(-n2ccnc2SCC(=O)Nc2cc(C)ccc2C)c(OC)c1 | 6.37 | 6.10 | < 6.00 | < 6.00
17 | CCN1CCN(Cc2ccc(NC(=O)c3cc4ccc5cccnc5c4[nH]3)cc2)CC1 | 6.30 | 6.37 | 6.24 | 6.17
18 | COc1ccc(-c2nc(NC(=O)CS(=O)(=O)c3ccc(F)cc3)sc2C)cc1 | – | – | 6.72 | 6.33
19 | O=C(O)C1Cc2c([nH]c3ccccc23)C(c2ccc(Cl)cc2Cl)N1 (configuration not stated) | < 6.00 | < 6.00 | < 6.00 | < 6.00
20 | Cc1ccc(N2C(=O)C3C(C2=O)C2(c4ccccc4)C(=O)C3(c3ccccc3)C(c3ccccc3)=C2c2ccccc2)cc1 (configuration not stated) | < 6.00 | < 6.00 | < 6.00 | < 6.00
21 | CCc1c(C)c(=N)c2ccccc2n1C | 6.47 | 6.49 | 6.37 | 6.11
22 | COc1cccc(NC(=O)[C@H](C(C)C)n2c(=O)[nH]c3ccccc3c2=O)c1 | 6.81 | 6.67 | 6.70 | 6.46

Row | Structure (SMILES) | pIC50 (Plasmodium falciparum [1]) | pIC50 (Plasmodium falciparum [2]) | pIC50 (Plasmodium falciparum [3]) | pIC50 (Plasmodium falciparum [4])
23 | CCOC(=O)c1cn(CC)c2cc(N(C)CCc3ccc(OC)c(OC)c3)c(F)cc2c1=O | 7.07 | 6.46 | – | –
24 | CCC(c1ccccc1)c1nn2c(-c3cccs3)nnc2s1 (configuration not stated) | 7.18 | 6.38 | 6.82 | 6.74
25 | CCOc1cc2c(cc1OCC)C(c1cc(OC)c(O)cc1Cl)NCC2 (configuration not stated) | 6.25 | 6.43 | 6.13 | 6.01
26 | CC1CN(C(=O)c2sc3ccccc3c2Cl)CC(C)O1 (configuration not stated) | 7.00 | 7.10 | 7.14 | 7.15
27 | CN(C)c1ccc(C=Cc2nc(=O)c3ccccc3o2)cc1 | < 6.30 | < 6.30 | 6.44 | 6.53
28 | COc1ccc(C2=C(c3ccc(OC)cc3)C3(c4ccccc4)C(=O)C2(c2ccccc2)C2C(=O)N(c4ccc(C)cc4)C(=O)C23)cc1 (configuration not stated) | < 6.00 | < 6.00 | < 6.00 | < 6.00
29 | CCOC(=O)c1c(NC(=O)c2ccccc2)sc2c(O)c(CN(CC)CC)ccc12 | < 6.00 | < 6.00 | – | –
30 | CCOC(=O)C1=C(c2ccccc2)N=c2sc(=Cc3cc(C)n(-c4ccc(F)cc4)c3C)c(=O)n2C1c1cccc(OC)c1OC (configuration not stated) | < 6.00 | < 6.00 | < 6.00 | < 6.00
31 | CCC1(C)CC(CCNCc2ccccc2O)(c2ccc(C)cc2)CCO1 (configuration not stated) | 6.63 | 6.27 | 6.58 | 6.56
32 | COc1cccc(C=Cc2nc(=O)c3ccccc3o2)c1OC | < 6.30 | < 6.30 | < 6.30 | < 6.30
33 | CCCN(CCC)CC(O)COc1ccccc1C(=O)Nc1ccccc1 (configuration not stated) | 6.77 | 6.55 | 6.50 | 6.46
34 | Fc1ccc2[nH]c3c(NCCCN4CCOCC4)ncnc3c2c1 | < 6.00 | < 6.00 | < 6.00 | < 6.00
35 | COc1ccc(C(=O)Nc2nonc2-c2ccc(OC)c(OC)c2)cc1Cl | < 6.00 | < 6.00 | < 6.00 | < 6.00
36 | COc1ccc(C=C2SC(=N)N(c3ccccc3OC)C2=O)cc1 | – | 6.27 | – | 6.78
37 | CCOC(=O)c1c(C)n(-c2ccc(Cl)cc2)c2ccc(OC(=O)C=Cc3ccccc3)cc12 | < 6.00 | < 6.00 | < 6.00 | < 6.00
38 | COc1ccc2c(c1)OC(O)(C(F)(F)C(F)(F)F)CC2=O (configuration not stated) | 6.15 | 6.35 | 6.61 | 6.69
39 | C=CC12CCN(CC1)C(C(O)c1ccnc3ccc(OC)cc13)C2 (configuration not stated) | – | – | 7.68 | 7.40
40 | Cc1ccc(-c2cc3nc4c(c(O)n3n2)CCCC4)cc1 | < 6.00 | < 6.00 | 6.05 | 5.90
41 | Cc1cccc(Nc2nc(N)c3ccccc3n2)c1 | 6.64 | 6.52 | 6.55 | 6.48
42 | CCn1c(CN2CCN(Cc3ccccc3)CC2)nc2cc(NC(=O)c3cccs3)ccc21 | – | – | 6.76 | 6.73
43 | c1ccc2cc3c(Nc4ccc(N5CCOCC5)cc4)ccnc3cc2c1 | < 6.00 | < 6.00 | 5.84 | < 6.00
44 | Cc1cc(C)c2c(c1)OCN(Cc1ccccc1Cl)C2 | – | – | 6.56 | 6.44

Row | Structure (SMILES) | pIC50 (Plasmodium falciparum [1]) | pIC50 (Plasmodium falciparum [2]) | pIC50 (Plasmodium falciparum [3]) | pIC50 (Plasmodium falciparum [4])
45 | COc1cc(OC)c(N(C)C(=O)c2cc3c(s2)-c2ccccc2S(=O)(=O)C3)cc1Cl | < 6.30 | < 6.30 | < 6.30 | < 6.30
46 | CCCc1cc(O)c2c3c(c(=O)oc2c1)CN(C)CC3 | < 6.00 | < 6.00 | – | –
47 | Cc1cc(NC(=O)C2c3ccccc3C(=O)N(CC(C)C)C2c2cccs2)no1 (configuration not stated) | 6.74 | 6.52 | 6.67 | 6.41
48 | Oc1ccccc1CNCC12CC3CC(CC(C3)C1)C2 | 7.20 | 6.87 | 6.98 | 6.92
49 | CNCCCNc1ccnc2cc(Cl)ccc12 | 7.64 | 7.36 | 7.40 | 6.81
50 | COc1ccccc1CNC(=O)CCn1c(=O)[nH]c2ccsc2c1=O | – | – | 6.44 | 6.36
51 | COc1ccc(Br)cc1C1Nc2ccc3ccccc3c2C2=C1C(=O)CC(c1ccccc1)C2 (configuration not stated) | < 6.00 | < 6.00 | 6.11 | 6.15
52 | Cc1cc(C=C2SC(=Nc3ccccc3)N(C3CCCC3)C2=O)c(C)n1-c1ccc(Cl)cc1 | < 6.00 | < 6.00 | < 6.00 | < 6.00
53 | CCc1ccc(Nc2cc(C)c3ccc(O)cc3n2)cc1 | 6.82 | 6.78 | 6.77 | 6.90
54 | COc1ccc2c(=O)cc(C(Cl)(Cl)Cl)oc2c1 | < 6.00 | < 6.00 | 6.03 | 6.10
55 | COc1ccc(-c2nc3cc(Cc4ccc5[nH]c(-c6ccc(OC)cc6)nc5c4)ccc3[nH]2)cc1 | < 6.00 | < 6.00 | < 6.00 | < 6.00
56 | Cc1cc(Nc2ccc(Cl)cc2)n2nc(C(F)(F)F)nc2n1 | 7.15 | 6.46 | 6.95 | 6.77
57 | COc1ccc(C(C)=O)cc1N1C(=O)C2C(C1=O)C1(c3ccccc3)C(=O)C2(c2ccccc2)C(c2ccc(C)cc2)=C1c1ccc(C)cc1 (configuration not stated) | < 6.00 | < 6.00 | < 6.00 | < 6.00
58 | CCCCCCOC(=O)C1=C(C)NC(=O)NC1c1ccccc1F (configuration not stated) | < 6.00 | < 6.00 | < 6.00 | < 6.00
59 | Cc1ccc(N2C3c4ccccc4N(S(=O)(=O)c4ccc(C)cc4)C2c2ccccc2N3S(=O)(=O)c2ccc(C)cc2)cc1 | < 6.30 | < 6.30 | < 6.30 | < 6.30
60 | CCCc1c(CC)c(=N)c2ccccc2n1C | 7.19 | 6.40 | 6.68 | 6.45
61 | Cc1ccc(Nc2nc(NCCO)c3ccccc3n2)cc1C | 6.66 | 6.62 | 6.73 | 6.49
62 | CCOC(=O)c1cnc2c(C)cc(C)cc2c1Nc1ccc(OC)c(OC)c1 | < 6.00 | < 6.00 | < 5.70 | < 5.70
63 | COc1ccc(NC(=O)C2c3ccccc3C(=O)N(CC(C)C)C2c2cccs2)cc1 (configuration not stated) | 6.68 | 6.46 | 6.58 | 6.43
64 | c1ccc(Cn2c(N=Nc3c(Nc4ccccc4)ccc4ccccc34)nc3ccccc32)cc1 | < 6.30 | < 6.30 | 6.90 | 7.19
